# “Also recorded” adds a separate entry of the source.
# Legend:
# [1] = test system: FSL-1; test: Isothermal titration calorimetry of peptide into FSL-1; type: binding; conditions: LP 0.05 mM, peptide 1 mM titrated in 3 μl portions every 5 min, 37 °C
# Experimental: (§1) Microcalorimetric measurements of peptide binding to selected LP, i.e., Pam3CSK4 and FSL-1 were performed on a MCS isothermal titration calorimeter (Microcal, Freiburg, Germany) at 37 °C, as previously described. The LP containing solutions (0.05 mM, prepared as described above) were dispensed into the microcalorimetric cell (volume 1.5 ml), and the peptide solutions (1 mM) were loaded into the syringe compartment (volume 0.1 ml). After temperature equilibration, the peptide was titrated in 3 μl aliquots every 5 min into the LP-containing cell under constant stirring and the heat of interaction after each injection measured by the MCS instrument was plotted versus time.
# [2] = test system: FSL-1 aggregates; test: FRET intercalation of peptide into FSL-1 aggregates; type: binding
# Source text: The ability of selected peptides to intercalate into LP aggregates was investigated exemplarily for FSL-1 and for LP SitC by FRET as described earlier. Briefly, the LP samples were doubly labelled with the fluorescent phospholipid dyes N-(7-nitrobenz-2-oxa-1,3-diazol-4-yl)-phosphatidyl ethanolamine (NBD-PE) and N-(lissamine rhodamine B sulfonyl)-phosphatidylethanolamine (Rh-PE) (Molecular Probes, Life Technologies). Intercalation of unlabeled molecules into the doubly labeled liposomes leads to probe dilution and to a lower FRET efficiency: Therefore, the emission intensity of the donor ID increases and that of the acceptor IA decreases (for the sake of clarity, only the quotient of the donor and acceptor emission intensity will be shown here).
# In all the experiments, the peptides (100 μl of a 100 μM Hepes solution) were added to doubly labelled LP (900 μl of a 10 μM solution) at 50 s after equilibration. NBD-PE was excited at 470 nm and the donor and acceptor fluorescence intensities were monitored at 531 and 593 nm, respectively, and the fluorescence signal ID/IA was recorded for further 250 s. The measurement was repeated twice.
# [3] = test system: Balb/C mice; test: Lethal toxemia in galactosamine-sensitized mice; type: in vivo, mouse; conditions: 200 μg/mouse peptide i.p. after 4 μg FSL-1 + D-galactosamine 18 mg/mouse; n = 6; up to 4 days; Kaplan-Meier, p < 0.05
# Experimental: Seven-week-old female SPF-free Balb/C mice of 20 g of body weight, approximately, were purchased from Harlan Spain (Harlan Interfauna Iberica S.A., Barcelona, Spain) and randomly distributed in experimental groups (at least 4 animals per group except for the determination of lethal dose (n = 3)). Sample size was calculated based on previous results with the same animal model. Animals were housed in individually ventilated cages (5 mice per cage) bedded with hardwood bedding. Mice were provided ad libitum access to feed and water and lighting was adjusted to a 14-hour light/10-hour dark cycle. During the experiments, the condition of the animals was monitored daily every 4 hours and animals displaying persistent motor ataxia and hunched posture were euthanized.
# To determine the lethal dose of FSL-1 in mice, the method of Galanos and collaborators[48] was followed with some modifications. Briefly, animals were intraperitoneally inoculated with increasing amounts of FSL-1 (50 ng, 500 ng, 5 μg and 50 μg) supplemented with 18 mg of D-galactosamine in a final volume of 200 μl of pyrogen-free saline. Galactosamine is known to sensitize mice to pro-inflammatory compounds such as LPS, thus making it possible to use lower amounts of the stimulatory drug[46]. The ability of Aspidasept® to protect mice from FSL-1 dependent lethal toxemia was assessed by co-administering FSL-1 (4 μg/mouse) with D-galactosamine (18 mg/mouse) intraperitoneally.
# Results were globally analyzed by means of a Kaplan-Meier survival analysis (SPSS 15.0). When the survival plots were parallel, the data were compared by the log-rank test, whereas the Breslow-Gehan-Wilcoxon test was applied when the plots intersected.
# [4] = test system: Pam3CSK4; test: Isothermal titration calorimetry of peptide into Pam3CSK4; type: binding
# Experimental: as §1
# [5] = test system: human mononuclear cells; test: TNFα production in human mononuclear cells (MNC) stimulated by LP, LTA or PGN, and its inhibition by SALP; type: cell-based
# Experimental: The stimulation of MNC was performed as described previously. Briefly, MNC were isolated from heparinized blood of healthy donors by the Hypaque-Ficoll density gradient method. The cell number was equilibrated at 5 × 10^6 cells/ml RPMI 1640 containing 2 mM L-glutamine, 100 U/ml penicillin and 100 μg/ml streptomycin. For stimulation, 200 μl/well MNC were transferred into 96-well culture plates. The stimuli were serially diluted in RPMI 1640 and added to the cultures at 20 μl per well. The cultures were incubated for 4 h at 37 °C under 5% CO2. Cell-free supernatants were collected after centrifugation of the culture plates for 10 min at 400 × g and stored at −20 °C until the determination of the cytokine content. Immunological determination of TNFα in the cell supernatant was performed in a sandwich-ELISA as described earlier (OptEIA; BD, Heidelberg, Germany). TNFα was determined and measured following manufacturer’s instructions and results are the average of two assays.
# LP preparations were pre-warmed for 30 min at 37 °C, and added to the cultures at 20 μl per well. In inhibition experiments, different SALP were added directly after LPS/LP/LTA administration.
# Since the data of the stimulation of human MNC by the bacterial and synthetic LP was taken over a time period of more than 6 years, the TNFα production lead to considerable variations due to different batches of LP and of Pep19-2.5, and in particular due to variations resulting from blood samples of different donors. Because the main emphasis laid here is the efficiency of the peptide to inhibit the cytokine production, most figures describe the inhibition efficieny of the peptide in %, by presenting the means ± SEM of at least 3 independent experiments. The absolute values of the cytokine production, where of note, is given separately in the text.
# [6] = test system: human MNCs; conditions: even at [LPS]:[Aspidasept] weight ratios as low as 1:1; cited from earlier work
# Source text: In this section, we first present in vitro data on the production of pro-inflammatory cytokines by human cells in response to LP or LTA from different origin and its neutralization by SALP. Then, we used a mouse model of acute toxemia to characterize the in vivo expression of those cytokines and to study if SALP can protect animals against lethal LP-induced sepsis.
sequence,measurement,setting,value
"GCKKYRRFRWKFKGKFWFWG [Aspidasept®, synthetic anti-LPS peptide (SALP), 20′mer, anti-septic therapeutic drug candidate]",ITC: FSL-1:peptide interaction,[1],exothermic reaction with saturation kinetics; also recorded: considerable reaction with saturation characteristics
same,FRET: intercalation on increase in peptide concentration,[2]; FSL-1:Pep19-2.5 1:1 M/M vs 1:0.1 M/M,did not lead to a further increase in intercalation
same,FRET: incorporation into the LP aggregate,"[2]; [LP]:[Aspidasept] 1:0.1 molar, peptide added after 50 s, ID/IA signal",instantaneous incorporation
same,survival of mice challenged with FSL-1,[3],significant survival benefit
same,ITC: Pam3CSK4:peptide interaction,"[4]; LP 0.05 mM, peptide 1 mM titrated in 3 μl portions every 5 min, 37 °C",weak exothermic reaction; also recorded: no clear thermal reaction
same,affinity of the peptide towards the LP,"[4]; Pam3CSK4, concluded from ITC",poor affinity
same,"inhibition of TNFα induction by LP, LTA and PGN",[5]; 10:1 excess weight ratio of the peptide,takes place in most cases
same,"cytokine expression induced by LP, LTA and PGN in presence of peptide",[5]; 100:1 weight ratio of the peptide,no longer any detectable cytokine expression
same,reduction of FSL-1-induced TNFα secretion,"[5]; stimulus FSL-1 100 and 10 ng/ml, 10-fold (10:1 weight%) excess of peptide",considerable reduction; also recorded: good degree of inhibition
same,reduction of FSL-1-induced TNFα secretion,"[5]; stimulus FSL-1, 100:1 excess of peptide",nearly completely abolished
same,inhibition of LP dependent TNFα production,"[5]; stimulus LP OspA and OspC, 10000 and 1000 ng/ml, peptide:LP ratio 10:1",inhibited
same,LP dependent TNFα production in presence of peptide,"[5]; stimulus LP OspA and OspC, peptide:LP 100:1 concentration ratio, data not shown",undetectable levels
same,reduction of LTA-dependent TNFα response,"[5]; stimulus LTA from S. aureus SA113Δlgt, 10000 and 1000 ng/ml, 10-fold excess of peptide",effectively reduced
same,inhibition of pro-inflammatory activity of MALP-2,"[5]; stimulus MALP-2, 100:1 weight% excess of the peptide, data not shown",nearly complete inhibition
same,inhibition of PGN-induced TNFα response,"[5]; stimulus PGN from S. aureus SA113Δlgt, 10000 and 1000 ng/ml, 10-fold excess of peptide",totally inhibited
same,inhibition of Pam3CSK4-induced cytokine (TNFα) production,"[5]; stimulus Pam3CSK4 1000, 100, 10 ng/ml, [LP]:[Pep] up to 1:100 weight%",only a minor inhibitory effect; also recorded: no significant influence; also recorded: no or only a small inhibition
same,inhibition of LTA-induced TNFα,"[5]; stimulus commercial LTA from B. subtilis, 10:1 weight% excess of peptide",complete inhibition
same,inhibition of LTA-induced cytokine,"[5]; stimulus commercial LTA from S. aureus, data not shown",inhibited
same,inhibition of LPS-induced cytokine expression in human MNCs,[6],efficiently inhibits
